Results on 14 molecules are retold here after ChEMBL document CHEMBL5512633, “Hit-to-lead optimization of 2-aminoquinazolines as anti-microbial agents against Leishmania donovani” (Eur J Med Chem, 2024).

Molecules are shown by their SMILES. Calls of active or inactive are those of the source. The rule behind the calls is not given here. Bounds are passed on as bounds.

What is called CC50 is the concentration giving 50% cytotoxicity. The inhibition is how much of the control response was suppressed. As usually defined, the half-life is the time in which the quantity being followed falls by half. The term IC50 denotes the concentration that inhibits the measured activity by half. What is called logD is lipophilicity at a set pH, counting ionised and neutral species.

The nature of data set [1]: Cytotoxicity against human THP-1 cells incubated for 72 hrs by DAPI staining based analysis. The format is toxicity, cell-based.
Data set [2] deals with Leishmania donovani. In words: Antileishmanial activity against Leishmania donovani MHOM/IN/1983/AG83 axenic amastigotes assessed as inhibition of growth at 30 uM incubated for 48 hrs by flow cytometric analysis relative to control. The format is functional. (A flow cytometer gives signals particle by particle.)
Data set [3] can be described thus: Cytotoxicity against human HepG2 cells incubated for 48 hrs by PI staining based flow cytometric analysis. The format is toxicity, cell-based.
Data set [4] can be described thus: Metabolic stability in mouse liver microsomes assessed as half-life preincubated for 10 mins and measured after 60 mins by LC-MS/MS analysis. The format is ADME, Microsome. A general note: Microsomes from liver hold many membrane-bound enzymes, among them those of drug oxidation.
The subject of data set [5] is Leishmania donovani. Kind of data set: Antileishmanial activity against Leishmania donovani MHOM/IN/1983/AG83 axenic amastigotes assessed as inhibition of growth incubated for 48 hrs by flow cytometric analysis. The format is functional, organism-based. The following applies: MHOM/IN/1983/AG83, 48 h.
The nature of data set [6]: Metabolic stability in human liver microsomes assessed as half-life preincubated for 10 mins and measured after 60 mins by LC-MS/MS analysis. The format is ADME, Microsome.
Data set [7] can be described thus: Metabolic stability in human liver microsomes assessed as hepatic blood flow preincubated for 10 mins and measured after 60 mins by LC-MS/MS analysis. The format is ADME, Microsome. The following applies: read-out: QH.
A short description of data set [8]: Stability in human plasma assessed as compound remaining measured after 2 hrs by LC-MS/MS analysis. The format is ADME, cell-free. The following applies: read-out: Stability.
The nature of data set [9]: Metabolic stability in mouse liver microsomes assessed as hepatic blood flow preincubated for 10 mins and measured after 60 mins by LC-MS/MS analysis. The format is ADME, Microsome. The following applies: read-out: QH.
Data set [10] is described as follows: Selectivity index, ratio of CC50 for cytotoxicity against human HepG2 cells to IC50 for antileishmanial activity against Leishmania donovani MHOM/IN/1983/AG83 axenic amastigotes. The format is toxicity, cell-based. The following applies: read-out: Ratio CC50/IC50.
Data set [11] is described as follows: Stability in mouse plasma assessed as compound remaining measured after 2 hrs by LC-MS/MS analysis. The format is ADME, cell-free. The following applies: read-out: Stability.
Data set [12] can be described thus: Lipophilicity, logD of compound in 1-octanol and phosphate buffer at pH 7.4 by HPLC-UV analysis. The format is physicochemical. The following applies: 1-octanol/phosphate buffer.

`COc1cc2c(N3CCCCC3)nc(NS(C)(=O)=O)nc2cc1OC1CCCC1` returned a half-maximal cytotoxic concentration (CC50) at 72 h in data set [1] of 57.9 µM. The inhibition at 30 µM in data set [2] was approximately 5.1%.
Molecule `COc1cc2c(N3CCCCC3)nc(NCc3ccc(Br)cc3)nc2cc1OC1CCCC1` returned a CC50 at 48 h in data set [3] of 28.1 µM. Further, the half-life in [4] was 46.5 min; in [6], 83.4 min. Also, the IC50 in data set [5] came to 2.57 µM. For the same molecule, the CC50 at 72 h in [1] was 15.2 µM. In addition, the hepatic extraction ratio at 1 h in data set [7] worked out at 0.281; in [9] it was 0.288. For the same molecule, the remaining at 2 h in data set [8] turned out to be 96.2%; in data set [11], 92.6%. Besides, the selectivity ratio in [10] was 10.9. This molecule also returned a logD in data set [12] of 2.6.
For the molecule `COc1cc2c(N3CCCCC3)nc(NS(C)(=O)=O)nc2cc1O`, the CC50 at 72 h in data set [1] is more than 100 µM. The inhibition at 30 µM in [2] was approximately 3.25%.
In data set [3], `COc1cc2c(N3CCCCC3)nc(N(C)C)nc2cc1OC1CCCC1` came in with a 50% cytotoxic concentration (CC50) at 48 h of 66.1 µM. The figures for the half-life in data set [4] and in [6] were 13.7 min and 39 min, respectively. Besides, the IC50 in data set [5] worked out at 6.85 µM. Also, the CC50 at 72 h in [1] was found to be 74.3 µM. Also, the hepatic extraction ratio at 1 h worked out at 0.452 in data set [7] and 0.579 in data set [9]. Besides, the remaining at 2 h in data set [8] was found to be 83.8%; in data set [11], 80.1%. The selectivity ratio in data set [10] worked out at 9.65. Besides, the logD in data set [12] turned out to be 2.74.
For `CCCCCCCCCCCCCCCCOP(=O)([O-])OCC[N+](C)(C)C` [MILTEFOSINE], the cytotoxic concentration (CC50) at 48 h in data set [3] was found to be 51.6 µM. Further, the IC50 in data set [5] came to 5.37 µM. The same molecule returned a CC50 at 72 h in data set [1] of 25 µM. Also, the selectivity ratio in data set [10] was determined as 9.38.
In the case of `COc1cc2c(N3CCCCC3)nc(NC(=O)c3ccc(C(F)(F)F)cc3)nc2cc1OC1CCCC1`, the CC50 at 72 h in [1] was 79 µM. In [2], the inhibition at 30 µM was approximately 34.5%.
`COc1cc2c(N3CCCCC3)nc(NCc3ccc(C(F)(F)F)cc3)nc2cc1OC1CCCC1`: the half-life in data set [4] was determined as 20.3 min; in data set [6], 38.9 min. Besides, the IC50 in data set [5] stood at 17.9 µM. This molecule also displayed a cytotoxic concentration (CC50) at 72 h in data set [1] of 28.1 µM. Moreover, the hepatic extraction ratio at 1 h was found to be 0.455 in data set [7] and 0.484 in [9]. Moreover, the remaining at 2 h in data set [8] amounted to 97.5%; in data set [11], 88.1%. In addition, the logD in data set [12] was determined as 2.94.
The molecule `COc1cc2c(N3CCCCC3)nc(NCc3ccc(F)cc3)nc2cc1OC1CCNC1` (stereo unspecified) gave a CC50 at 48 h in data set [3] of 10.1 µM. Besides, the half-life was 52.1 min in data set [4] and more than 120 min in data set [6]. Besides, the IC50 in data set [5] came to 4.66 µM. The CC50 at 72 h in data set [1] came out at 6.3 µM. Further, the hepatic extraction ratio at 1 h in [7] amounted to 0.21; in data set [9], 0.42. In addition, the results for the remaining at 2 h in data set [8] and in [11] were 99% and 99.1%, respectively. Also, in data set [10], the selectivity ratio is 2.18. The logD in data set [12] worked out at 2.37.
For `CCCCc1ccc(CNc2nc(N3CCCCC3)c3cc(OC)c(OC4CCCC4)cc3n2)cc1`, in [1], it took 5.69 µM to reach half-maximal cytotoxicity (CC50 at 72 h). Also, the inhibition at 30 µM in [2] was approximately 17%.
Consider `COc1cc2c(N3CCCCC3)nc(N)nc2cc1O`, for which the CC50 at 72 h in [1] was 22.2 µM. For the same molecule, in data set [2], the inhibition at 30 µM is approximately 13.6%.
Consider `COc1cc2c(N3CCCCC3)nc(Cl)nc2cc1OCc1ccccc1`, for which the CC50 at 72 h in data set [1] was more than 100 µM. Also, the inhibition result in data set [2] was “inactive”.
The molecule `COc1cc2c(N3CCCCC3)nc(NS(C)(=O)=O)nc2cc1OCc1ccccc1` returned a CC50 at 72 h in data set [1] of more than 50 µM. For the same molecule, in data set [2], the inhibition at 30 µM was approximately 5.5%.
Take `COc1cc2c(N3CCOCC3)nc(NCc3ccc(F)cc3)nc2cc1OC1CCCC1`: the half-life is 6.9 min in data set [4] and 6 min in data set [6]. In data set [5], the IC50 was found to be 12 µM. This molecule also registered a CC50 at 72 h in data set [1] of more than 50 µM. Also, the hepatic extraction ratio at 1 h was determined as 0.843 in data set [7] and 0.732 in [9]. Moreover, the remaining at 2 h was 59.3% in data set [8] and 95.6% in [11]. Also, in [12], the logD was 3.22.
With `COc1cc2c(N3CCCCC3)nc(N(C)C)nc2cc1O`, the CC50 at 72 h in data set [1] is 73.4 µM. Also, the inhibition at 30 µM in data set [2] was approximately 18.8%.
